Laboratory results: PMC9610702, “Synthesis, Characterization, and Biological Evaluation of Tetrahydropyrimidines: Dual-Activity and Mechanism of Action” (Pharmaceutics, 2022)
Converted amounts (≈) assume the structure as drawn. Like-named read-outs stand apart in the source and are kept apart here.

How the values were obtained:
Bacillus subtilis = test: antibacterial MIC, broth tube dilution; format: cell-based
Source text: (§1) In this paper, the synthesis, characterization, and biological evaluation of the novel tetrahydropyrimidines—THPMs are described. THPMs are well-known for wide pharmacological activities such as antimicrobial, anticancer, antiviral, etc. This research includes obtained results of in vitro antimicrobial, anticancer, and α-glucosidase inhibitory activities of the eleven novel THPMs. An antibiotic assessment was done against five bacteria (two Gram-positive and three Gram-negative) and five fungi by determining the minimal inhibitory concentration (MIC), using the broth tube dilution method. […] The cytotoxic activity was performed on the tumor cell lines (HeLa, K562, and MDA-MB-231) and normal cells (MRC-5). The best antitumor activity was shown by compounds 4b and 4k against HeLa cell lines.
(§2) All materials and methods used for biological examination (antibacterial, antifungal, anticancer, and α-glucosidase inhibitory activities) and crystal structure determination are presented in the Supplementary Materials, File S1.

Escherichia coli = test: antibacterial MIC, broth tube dilution; format: cell-based
Source text: as §1, §2

Klebsiella oxytoca = test: antibacterial MIC, broth tube dilution; format: cell-based
Source text: as §1, §2

Proteus mirabilis = test: antibacterial MIC, broth tube dilution; format: cell-based; details: ND = not detected
Source text: as §1, §2

Staphylococcus aureus = test: antibacterial MIC, broth tube dilution; format: cell-based
Source text: as §1, §2

Aspergillus flavus = test: antifungal MIC, broth tube dilution; format: cell-based
Source text: as §1, §2

Aspergillus niger = test: antifungal MIC, broth tube dilution; format: cell-based
Source text: as §1, §2

Mucor mucedo = test: antifungal MIC, broth tube dilution; format: cell-based
Source text: as §1, §2

Penicillium italicum = test: antifungal MIC, broth tube dilution; format: cell-based
Source text: as §1, §2

[1] = system: Trichophyton mentagrophytes; test: antifungal MIC, broth tube dilution; format: cell-based
Source text: as §1, §2

HeLa cells [2] = test: cytotoxic activity; format: cell-based; details: for IC50 / IC50 Average ± SD: HeLa, three independent experiments in triplicate; for IC50: read-out: IC50 Average ± SD; for selectivity coefficient: HeLa compared with MRC-5 cells
Source text: (§3) All materials and methods used for biological examination (antibacterial, antifungal, anticancer, and α-glucosidase inhibitory activities) and crystal structure determination are presented in the Supplementary Materials, File S1. The cytotoxic activity of eleven novel compounds was examined against HeLa, K562, MDA-MB-231, and MRC-5. The tested compounds exerted concentration-dependent cytotoxic effects on cell lines. […] Compared to compound 4j, 4k has a methyl group in para position of benzoyl fragment; so, probably this structural difference is responsible for better activity and selectivity of compound 4k on HeLa (43.63 ± 1.49 µM) and K562 (39.11 ± 2.90 µM).

K562 cells = test: cytotoxic activity; format: cell-based; details: for IC50: K562, three independent experiments in triplicate, read-out: IC50 Average ± SD
Source text: as §3

MDA-MB-231 cells = test: cytotoxic activity; format: cell-based; details: three independent experiments in triplicate, read-out: IC50 Average ± SD
Source text: as §3

[3] = system: normal human lung fibroblasts MRC-5; test: cytotoxic activity on normal cells; format: cell-based; details: MRC5, MRC-5 normal fibroblasts, three independent experiments in triplicate, read-out: IC50 Average ± SD
Source text: as §2
The cytotoxic activity of eleven novel compounds was examined against HeLa, K562, MDA-MB-231, and MRC-5.
The cytotoxic activity was examined against HeLa, K562, MDA-MB-231 cells, and normal human lung fibroblasts MRC-5. […] In addition, the effects of the 4k and 4b on the cell cycle were examined.

α-glucosidase = α-glucosidase inhibitory activity; format: biochemical; details: average ± SD of two experiments
Source text: as §2

HeLa cells [4] = test: cell-cycle phase distribution; format: cell-based; details: 24 h, IC50 and 2IC50 concentrations, vs untreated control
Source text: as §2
The observed changes in the amounts of treated cells within subG1 and G1 phases of the cell cycle were accompanied with decreased percentages of cells within the S and G2/M phases.
The data shown represent the average ± standard deviation of two independent experiments.

HeLa cells [5] = test: morphological evaluation of cell death mode, acridine orange/ethidium bromide staining; format: cell-based; details: 24 h, 2IC50 concentration
Experimental: as §2
The photomicrographs of control HeLa cells and HeLa cells incubated for 24 h with 2IC50 concentrations of the compounds 4b and 4k and stained with a mixture of acridine orange/ethidium bromide are presented in Figure 5. […] Orange-red-stained shrunken cells with condensed chromatin in later stages of apoptosis were detected as well. […] The proapoptotic effect of compound 4b was to some extent stronger when comparing with effect of compound 4k.
Figure 5 Photomicrographs of acridine orange/ethidium bromide-stained control HeLa cells and HeLa cells incubated with 2IC50 concentrations of compounds 4b and 4k during 24 h (magnification 20×). Representative photomicrographs are shown.

SMILES | MIC (Bacillus subtilis) [µg/mL] | MIC (Escherichia coli) [µg/mL] | MIC (Klebsiella oxytoca) [µg/mL] | MIC (Proteus mirabilis; read-out: MIC) [µg/mL] | MIC (Staphylococcus aureus) [µg/mL] | MIC (Aspergillus flavus) [µg/mL] | MIC (Aspergillus niger) [µg/mL] | MIC (Mucor mucedo) [µg/mL] | MIC (Penicillium italicum) [µg/mL] | MIC [1] [µg/mL] | IC50 (HeLa cells [2]; Homo sapiens) [µM] | IC50 (K562 cells; Homo sapiens) [µM] | IC50 (MDA-MB-231 cells; Homo sapiens) [µM] | IC50 [3] [µM] | IC50 (α-glucosidase) [µM] | also measured
COC(=O)C1=C(C)N(C)C(=S)NC1c1cc(Br)c(O)c(OC)c1 (stereo not drawn) [4a] | 3250 (≈ 8.1 mM) | 1620 (≈ 4.04 mM) | 1620 (≈ 4.04 mM) | 810 (≈ 2.02 mM) | 1620 (≈ 4.04 mM) | 1620 (≈ 4.04 mM) | 1620 (≈ 4.04 mM) | 1620 (≈ 4.04 mM) | 1620 (≈ 4.04 mM) | 400 (≈ 0.997 mM) | 97.4 ± 5.4 | 79 ± 7.49 | 144 ± 8.29 | 187 ± 4.66 | 313 ± 7.73 | 
COC(=O)C1=C(C)N(C)C(=S)NC1c1cc(I)c(O)c(OC)c1 (stereo not drawn) [4b] | 3250 (≈ 7.25 mM) | 1620 (≈ 3.61 mM) | 1620 (≈ 3.61 mM) | 810 (≈ 1.81 mM) | 1620 (≈ 3.61 mM) | 1620 (≈ 3.61 mM) | 810 (≈ 1.81 mM) | 1620 (≈ 3.61 mM) | 1620 (≈ 3.61 mM) | 400 (≈ 0.892 mM) | 52.6 ± 4.45 | 76.8 ± 5.01 | 116 ± 8.71 | 112 ± 10.8 | 292 ± 6.67 | selectivity coefficient (HeLa cells [2]): 2.13; percentage of HeLa cells in the G1 phase (HeLa cells [4]): pronounced increase; percentage of dead cells within subG1 phase (HeLa cells [4]): increase; percentages of cells within the S and G2/M phases (HeLa cells [4]): decreased; cell death mode (apoptosis) (HeLa cells [5]): induce apoptotic cell death
COC(=O)C1=C(C)N(C)C(=S)NC1c1cc(OC)c(O)c([N+](=O)[O-])c1 (stereo not drawn) [4c] | 3250 (≈ 8.85 mM) | 1620 (≈ 4.41 mM) | 1620 (≈ 4.41 mM) | 1620 (≈ 4.41 mM) | 1620 (≈ 4.41 mM) | 400 (≈ 1.09 mM) | 810 (≈ 2.2 mM) | 1620 (≈ 4.41 mM) | 1620 (≈ 4.41 mM) | 400 (≈ 1.09 mM) | > 200 | 180 ± 9.15 | > 200 | 196 ± 5.89 |  | IC50 Average ± SD (HeLa cells [2]): very low cytotoxicity
COC(=O)C1=C(C)N(C)C(=S)NC1c1cc(OC)c(OC(C)=O)c([N+](=O)[O-])c1 (stereo not drawn) [4d] | 3250 (≈ 7.94 mM) | 1620 (≈ 3.96 mM) | 1620 (≈ 3.96 mM) | 810 (≈ 1.98 mM) | 810 (≈ 1.98 mM) | 1620 (≈ 3.96 mM) | 1620 (≈ 3.96 mM) | 1620 (≈ 3.96 mM) | 1620 (≈ 3.96 mM) | 400 (≈ 0.977 mM) | > 200 | 165 ± 8.5 | > 200 | 193 ± 10.3 | 1120 ± 20.6 | IC50 Average ± SD (HeLa cells [2]): very low cytotoxicity
CCC(=O)Oc1ccc(C2NC(=S)N(C)C(C)=C2C(=O)OC)cc1OC (stereo not drawn) [4e] | 3250 (≈ 8.59 mM) | 1620 (≈ 4.28 mM) | 3250 (≈ 8.59 mM) |  | 3250 (≈ 8.59 mM) | 1620 (≈ 4.28 mM) | 1620 (≈ 4.28 mM) | 1620 (≈ 4.28 mM) | 1620 (≈ 4.28 mM) | 200 (≈ 0.528 mM) | 197 ± 3.93 | 149 ± 5.74 | > 200 | 128 ± 3.2 | 674.8 ± 5.65 | MIC (Proteus mirabilis): no inhibitory effect
COC(=O)C1=C(C)N(C)C(=S)NC1c1ccc(OC(=O)C2CC2)c(OC)c1 (stereo not drawn) [4f] | 3250 (≈ 8.32 mM) | 3250 (≈ 8.32 mM) | 3250 (≈ 8.32 mM) | 1620 (≈ 4.15 mM) | 3250 (≈ 8.32 mM) | 1620 (≈ 4.15 mM) | 810 (≈ 2.07 mM) | 1620 (≈ 4.15 mM) | 1620 (≈ 4.15 mM) | 200 (≈ 0.512 mM) | 135 ± 9.32 | 123 ± 8.52 | 161 ± 9.69 | 196 ± 5.54 | 767.9 ± 5.91 | 
COC(=O)C1=C(C)N(C)C(=S)NC1c1ccc(OC(C)=O)c(OC)c1 (stereo not drawn) [4g] | 3250 (≈ 8.92 mM) | 1620 (≈ 4.45 mM) | 1620 (≈ 4.45 mM) | 810 (≈ 2.22 mM) | 3250 (≈ 8.92 mM) | 1620 (≈ 4.45 mM) | 1620 (≈ 4.45 mM) | 1620 (≈ 4.45 mM) | 1620 (≈ 4.45 mM) | 400 (≈ 1.1 mM) | 197 ± 3.55 | 153 ± 2.58 | > 200 | 193 ± 9.59 | 192 ± 5.95 | 
CCOc1cccc(C2NC(=S)N(C)C(C)=C2C(=O)OC)c1OC(C)=O (stereo not drawn) [4h] | 3250 (≈ 8.59 mM) | 3250 (≈ 8.59 mM) | 3250 (≈ 8.59 mM) | 3250 (≈ 8.59 mM) | 3250 (≈ 8.59 mM) | 1620 (≈ 4.28 mM) | 1620 (≈ 4.28 mM) | 1620 (≈ 4.28 mM) | 1620 (≈ 4.28 mM) | 810 (≈ 2.14 mM) | 121 ± 9.96 | 79.9 ± 6.73 | 114 ± 12.9 | 77.8 ± 2.57 | 933 ± 25.2 | 
COC(=O)C1=C(C)N(C)C(=S)NC1c1ccc(OC(=O)c2ccccc2)c(OC)c1 (stereo not drawn) [4j, methyl 4-(4′-benzoyloxy-3′-methoxyphenyl)-1,2,3,4-tetrahydro-1,6-dimethyl-2-thioxopyrimidine-5-carboxylate] | 3250 (≈ 7.62 mM) | 3250 (≈ 7.62 mM) | 3250 (≈ 7.62 mM) | 1620 (≈ 3.8 mM) | 3250 (≈ 7.62 mM) | 1620 (≈ 3.8 mM) | 1620 (≈ 3.8 mM) | 1620 (≈ 3.8 mM) | 1620 (≈ 3.8 mM) | 400 (≈ 0.938 mM) | 78.1 ± 5.78 | 68 ± 6.53 | 123 ± 2.19 | 104 ± 8.61 |  | 
COC(=O)C1=C(C)N(C)C(=S)NC1c1ccc(OC(=O)c2ccc(C)cc2)c(OC)c1 (stereo not drawn) [4k] | 3250 (≈ 7.38 mM) | 3250 (≈ 7.38 mM) | 3250 (≈ 7.38 mM) | 3250 (≈ 7.38 mM) | 3250 (≈ 7.38 mM) | 810 (≈ 1.84 mM) | 1620 (≈ 3.68 mM) | 1620 (≈ 3.68 mM) | 1620 (≈ 3.68 mM) | 200 (≈ 0.454 mM) | 43.6 | 39.1 ± 2.9 | 74.1 ± 1.25 | 87.2 ± 7.31 | 1080 ± 54.5 | selectivity coefficient (HeLa cells [2]): 2; selectivity coefficient (K562 cells; K562 compared with MRC-5 cells): 2.23; percentage of HeLa cells in the G1 phase (HeLa cells [4]): pronounced increase; percentage of dead cells within subG1 phase (HeLa cells [4]): increase; percentages of cells within the S and G2/M phases (HeLa cells [4]): decreased; cell death mode (apoptosis) (HeLa cells [5]): activate apoptosis
OC(Cn1cncn1)(Cn1cncn1)c1ccc(F)cc1F [Fluconazole, reference compound] |  |  |  |  |  | 1000 (≈ 3.27 mM) | 500 (≈ 1.63 mM) | 1000 (≈ 3.27 mM) | 1000 (≈ 3.27 mM) | 250 (≈ 0.816 mM) |  |  |  |  |  | 
[H]/N=C(/N)N[C@H]1[C@H](O)[C@@H](O)[C@H](O[C@@H]2O[C@@H](C)[C@](O)(C=O)[C@H]2O[C@@H]2O[C@@H](CO)[C@H](O)[C@@H](O)[C@@H]2NC)[C@@H](N/C(N)=N\[H])[C@@H]1O [Streptomycin, reference compound] | 16 (≈ 0.0275 mM) | 62 (≈ 0.107 mM) | 8 (≈ 0.0138 mM) | 62 (≈ 0.107 mM) | 31 (≈ 0.0533 mM) |  |  |  |  |  |  |  |  |  |  | 
N.N.[Cl][Pt][Cl] [cisPt, reference compound] |  |  |  |  |  |  |  |  |  |  |  |  |  |  |  | IC50 (HeLa cells [2]): 4.91 ± 0.74 µM; IC50 (K562 cells): 6.89 ± 0.21 µM; IC50 (MDA-MB-231 cells): 14.7 ± 0.36 µM
